These compounds were tested against T1, human beta-3-adrenergic receptor (Homo sapiens, UniProt P13945) (assay: cAMP production (SPA) in CHO cells stably expressing human beta-3-adrenergic receptor, agonist activity). Settings: cAMP production in CHO cells expressing human beta-3-adrenergic receptor; compounds binned (≦1 μM or >1 μM); read-out: Beta-3 Agonistic Activity, EC50 values.
T1 construct: Chinese hamster ovary (CHO) cells that stably express full-length human beta-3-adrenergic receptor; expressed in transfected cells
T1 sequence (P13945 whole entry): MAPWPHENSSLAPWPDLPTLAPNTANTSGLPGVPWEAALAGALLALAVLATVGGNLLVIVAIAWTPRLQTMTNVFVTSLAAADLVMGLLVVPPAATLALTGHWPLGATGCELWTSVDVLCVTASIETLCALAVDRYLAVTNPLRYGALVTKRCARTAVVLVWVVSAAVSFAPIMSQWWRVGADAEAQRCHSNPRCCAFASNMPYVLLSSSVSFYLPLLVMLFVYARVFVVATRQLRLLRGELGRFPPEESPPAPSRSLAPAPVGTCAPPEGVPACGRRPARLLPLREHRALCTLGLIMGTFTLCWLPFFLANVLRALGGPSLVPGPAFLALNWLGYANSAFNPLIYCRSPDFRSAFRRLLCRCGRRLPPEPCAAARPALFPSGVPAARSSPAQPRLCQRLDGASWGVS
Format: cell-based
Description: The cell line is grown in 90% F12 nutrient mixture (HAM), 10% fetal bovine serum, 100 units/ml penicillin G sodium, […] streptomycin sulfate, and 2 mM L-glutamine at 37° C. in 95% air and 5% CO2. The transfected cell line is maintained with G418 (800ug/ml).
To test agonist activity, cells are exposed to test compound and then assayed for cAMP production. […] Test compounds are assayed from 10 μM to 3 nM with 3-fold serial dilutions. The control agonist, isoproterenol (10 mM stock in 1.1 mM ascorbate), is assayed by 3-fold dilution beginning at 1 μM. Following a 30-minute incubation with the test compounds, the buffer/compound mixture is removed. […] The cAMP values are then plotted to ascertain the EC50 of each compound tested.

EC50 | Structure (SMILES)
≤ 1000 nM | CCOc1cc(-c2ccc3c(c2)CC[C@H](CNC[C@H](O)COc2ccccc2)O3)ccc1C(=O)O [Example 207]
≤ 1000 nM | CC(C)CNc1cc(-c2ccc3c(c2)CC[C@H](CNC[C@H](O)COc2ccccc2)O3)ccc1C(=O)O [Example 200]
≤ 1000 nM | Cc1ccc(-c2cc(-c3ccc4c(c3)CC[C@H](CNC[C@H](O)COc3ccccc3)O4)ccc2C(=O)O)cc1 [Example 217]
≤ 1000 nM | O=C(O)c1ccc(-c2ccc3c(c2)CC[C@H](CNC[C@H](O)COc2cccc4[nH]c5ccccc5c24)O3)cc1 [Example 141, 4-[(2R)-2-({[(2S)-3-(9H-Carbazol-4-yloxy)-2-hydroxypropyl]amino}methyl)-3,4-dihydro-2H-chromen-6-yl]benzoic acid]
≤ 1000 nM | CC(C)c1ccccc1SC[C@@H](O)CNC[C@H]1CCc2cc(-c3ccc(C(=O)O)cc3)ccc2O1 [Example 171]
≤ 1000 nM | O=C(O)c1ccc(-c2ccc3c(c2)CC[C@H](CNCC(O)COc2ccccc2-c2ccccc2)O3)cc1 (stereo partly shown) [Example 239]
> 1000 nM | COC(=O)c1ccc(-c2ccc3c(c2)CC[C@H](CNC[C@H](O)COc2cccc4[nH]c5ccccc5c24)O3)cc1 [Example 102]
≤ 1000 nM | CC(C)(C)c1ccc(-c2cc(-c3ccc4c(c3)CC[C@H](CNC[C@H](O)COc3ccccc3)O4)ccc2C(=O)O)cc1 [Example 220]
> 1000 nM | O=C(O)c1ccc(-c2ccc3c(c2)CC[C@H](CNC[C@H](O)CSc2ccc(C(F)(F)F)cc2)O3)cc1 [Example 181]
≤ 1000 nM | O=C(O)c1ccc(-c2ccc3c(c2)CC[C@H](CNC[C@H](O)COc2ccccc2Cl)O3)cc1 [Example 252]
> 1000 nM | Cc1cc(C)c(OCC(O)CNC[C@H]2CCc3cc(-c4ccc(C(=O)O)cc4)ccc3O2)c(C)c1 (stereo partly shown) [Example 222]
≤ 1000 nM | COCCc1ccc(OC[C@@H](O)CNC[C@H]2CCc3cc(-c4ccc(C(=O)O)cc4)ccc3O2)cc1 [Example 139, 4-{(2R)-2-[({(2S)-2-hydroxy-3-[4-(2-methoxyethyl)phenoxy]propyl}amino)methyl]-3,4-dihydro-2H-chromen-6-yl}benzoic acid]
≤ 1000 nM | O=C(O)c1cc(-c2ccc3c(c2)CC[C@H](CNC[C@H](O)COc2ccccc2)O3)cs1 [Example 183]
≤ 1000 nM | Cc1ccccc1OCC(O)CNC[C@H]1CCc2cc(-c3ccc(C(=O)O)cc3)ccc2O1 (stereo partly shown) [Example 227]
≤ 1000 nM | COc1cc(-c2ccc3c(c2)CCC(CNC[C@H](O)COc2ccccc2)O3)ccc1C(=O)O (stereo in doubt) [Example 206, 4-[(2S)-2-({[(2S)-2-hydroxy-3-phenoxypropyl]amino}methyl)-3,4-dihydro-2H-chromen-6-yl]-2-methoxybenzoic acid]
> 1000 nM | COc1ccc(OCC(O)CNC[C@H]2CCc3cc(-c4ccc(C(=O)O)cc4)ccc3O2)cc1 (stereo partly shown) [Example 230]

EC50 | Structure (SMILES)
> 1000 nM | O=C(O)c1ccc(-c2ccc3c(c2)CC[C@H](CNC[C@H](O)CSc2ccc(Cl)cc2)O3)cc1 [Example 173]
≤ 1000 nM | Nc1cc(-c2ccc3c(c2)CC[C@H](CNC[C@H](O)COc2ccccc2)O3)ccc1C(=O)O [Example 198]
≤ 1000 nM | O=C(O)c1ccc(-c2ccc3c(c2)CC[C@H](CNC[C@H](O)COc2cccc(Cl)c2)O3)cc1 [Example 254]
> 1000 nM | COc1cccc(SC[C@@H](O)CNC[C@H]2CCc3cc(-c4ccc(C(=O)O)cc4)ccc3O2)c1 [Example 178]
≤ 1000 nM | O=C(O)c1csc(-c2ccc3c(c2)CC[C@H](CNC[C@H](O)COc2ccccc2)O3)c1 [Example 186]
≤ 1000 nM | O=C(O)c1ccc(-c2ccc3c(c2)CC[C@H](CNC[C@H](O)COc2ccc(O)cc2)O3)cc1 [Example 163]
≤ 1000 nM | COC(=O)c1ccc2cc(-c3ccc4c(c3)CC[C@H](CNC[C@H](O)COc3ccccc3)O4)ccc2c1 [Example 103, methyl 6-[(2R)-2-({[(2S)-2-hydroxy-3-phenoxypropyl]amino}methyl)-3,4-dihydro-02H-chromen-6-yl]-2-naphthoate]
≤ 1000 nM | O=C(O)c1ccc(-c2ccc3c(c2)CC[C@H](CNC[C@H](O)CSc2ccccc2F)O3)cc1 [Example 174]
≤ 1000 nM | CCN(CC)c1cc(-c2ccc3c(c2)CC[C@H](CNC[C@H](O)COc2ccccc2)O3)ccc1C(=O)O [Example 199]
≤ 1000 nM | CCCOc1cc(-c2ccc3c(c2)CC[C@H](CNC[C@H](O)COc2ccccc2)O3)ccc1C(=O)O [Example 208]
≤ 1000 nM | O=C(O)c1ccc(-c2ccc3c(c2)CC[C@H](CNC[C@H](O)COc2ccccc2F)O3)cc1 [Example 253]
> 1000 nM | CC(C)c1cccc(C(C)C)c1OC[C@@H](O)CNC[C@H]1CCc2cc(-c3ccc(C(=O)O)cc3)ccc2O1 [Example 140, 4-[(2R)-2-({[(2S)-3-(2,6-diisopropylphenoxy)-2-hydroxypropyl]amino}methyl)-3,4-dihydro-2H-chromen-6-yl]benzoic acid]
≤ 1000 nM | COC(=O)c1ccc(-c2ccc3c(c2)CC[C@H](CNC[C@H](O)COc2ccccc2)O3)cc1 [Example 84, Methyl 4-[(2R)-2-({[(2S)-2-hydroxy-3-phenoxypropyl]amino}methyl)-3,4-dihydro-2H-chromen-6-yl]benzoate]
> 1000 nM | CCc1ccc(SC[C@@H](O)CNC[C@H]2CCc3cc(-c4ccc(C(=O)O)cc4)ccc3O2)cc1 [Example 170]
> 1000 nM | COc1ccc(SC[C@@H](O)CNC[C@H]2CCc3cc(-c4ccc(C(=O)O)cc4)ccc3O2)cc1 [Example 179]

The next lines start with the compound.

Structure (SMILES) | EC50
CC(C)c1sc(-c2ccc3c(c2)CC[C@H](CNC[C@H](O)COc2ccccc2)O3)nc1C(=O)O [Example 191] | ≤ 1000 nM
CCOC(=O)c1sc(-c2ccc3c(c2)CC[C@H](CNC[C@H](O)COc2ccccc2)O3)nc1-c1ccccc1 [Example 136] | > 1000 nM
O=C(NC1CCCCC1)c1cc(-c2ccc3c(c2)CC[C@H](CNC[C@H](O)COc2ccccc2)O3)ccn1 [Example 96] | > 1000 nM
NC(=O)c1cc2c(OCC(O)CNC[C@H]3CCc4cc(CCC(=O)O)ccc4O3)cccc2[nH]1 (stereo partly shown) [Example 270] | > 1000 nM
O=C(O)CCc1ccc2c(c1)CC[C@H](CNC[C@H](O)COc1ccc(F)cc1)O2 [Example 268] | ≤ 1000 nM
CCCCNc1cc(-c2ccc3c(c2)CC[C@H](CNC[C@H](O)COc2ccccc2)O3)ccc1C(=O)O [Example 195, 2-(butylamino)-4-[(2R)-2-({[(2)-2-hydroxy-3-(phenyloxy)propyl]amino}methyl)-3,4-dihydro-2H-chromen-6-yl]benzoic acid] | ≤ 1000 nM
O=C(O)c1nc(-c2ccc3c(c2)CC[C@H](CNC[C@H](O)COc2ccccc2)O3)oc1-c1ccccc1 [Example 187] | ≤ 1000 nM
O=C(O)c1ccc(-c2ccc3c(c2)CC[C@H](CNC[C@H](O)COc2ccccc2)O3)cc1-c1ccc(Cl)cc1 [Example 216] | ≤ 1000 nM
CCOC(=O)c1sc(-c2ccc3c(c2)CC[C@H](CNC[C@H](O)COc2ccccc2)O3)nc1C(C)C [Example 137] | > 1000 nM
O=C(O)CCc1ccc2c(c1)CC[C@H](CNC[C@H](O)COc1ccccc1F)O2 [Example 265, 3-[(2R)-2-({[(2S)-3-(2-Fluorophenoxy)-2-hydroxypropyl]amino}methyl)-3,4-dihydro-2H-chromen-6-yl]propanoic acid] | ≤ 1000 nM
CCOC(=O)c1nn(C)c(C)c1-c1ccc2c(c1)CC[C@H](CNC[C@H](O)COc1ccccc1)O2 [Example 131] | ≤ 1000 nM
COC(=O)c1csc(-c2ccc3c(c2)CC[C@H](CNC[C@H](O)COc2ccccc2)O3)c1 [Example 132] | ≤ 1000 nM
COC(=O)c1cc(-c2ccc3c(c2)CC[C@H](CNC[C@H](O)COc2ccccc2)O3)cc2c1OCC2 [Example 130] | ≤ 1000 nM
O=C(O)CCc1ccc2c(c1)CC[C@H](CNC[C@H](O)COc1ccc(Cl)cc1)O2 [Example 267] | > 1000 nM
O[C@@H](CNC[C@H]1CCc2cc(I)ccc2O1)COc1ccccc1 [Example 80, (2S)-1-({[(2R)-6-iodo-3,4-dihydro-2H-chromen-2-yl]methyl}amino)-3-phenoxy-2-propanol] | ≤ 1000 nM
O=C(O)c1cc(-c2ccc3c(c2)CC[C@H](CNC[C@H](O)COc2ccccc2)O3)cc2c1OCC2 [Example 185] | ≤ 1000 nM
O=C(O)c1ccc(-c2ccc3c(c2)CC[C@H](CNC[C@H](O)COc2ccccc2)O3)cc1NC1CCCCC1 [Example 197] | ≤ 1000 nM
COC(=O)c1cc(-c2ccc3c(c2)CC[C@H](CNC[C@H](O)COc2ccccc2)O3)cs1 [Example 133] | ≤ 1000 nM
Cc1c(-c2ccc3c(c2)CC[C@H](CNC[C@H](O)COc2ccccc2)O3)c(C(=O)O)nn1C [Example 184] | ≤ 1000 nM
O=C(O)CCc1ccc2c(c1)CC[C@H](CNC[C@H](O)COc1ccccc1)O2 [Example 263, 3-[(2R)-2-({[(2S)-2-Hydroxy-3-phenoxypropyl]amino}methyl)-3,4-dihydro-2H-chromen-6-yl]propanoic acid] | ≤ 1000 nM
O=C(O)c1sc(-c2ccc3c(c2)CC[C@H](CNC[C@H](O)COc2ccccc2)O3)nc1-c1ccccc1 [Example 189] | ≤ 1000 nM
CC(C)c1nc(-c2ccc3c(c2)CC[C@H](CNC[C@H](O)COc2ccccc2)O3)sc1C(=O)O [Example 190] | ≤ 1000 nM
O=C(O)c1ccc(-c2ccc3c(c2)CC[C@H](CNC[C@H](O)COc2ccccc2)O3)cc1NC1CCC1 [Example 201] | ≤ 1000 nM
O=C(O)CCc1ccc2c(c1)CC[C@H](CNC[C@H](O)COc1cccc(Cl)c1)O2 [Example 266] | > 1000 nM

Reference: patent US6699860B2, “Di-substituted aminomethyl-chroman derivative beta-3 adrenoreceptor agonists” (Bayer Pharmaceuticals Corporation, priority 2000, dated 2004)
